Assay results reported in patent publication US8889370B2, “Method of determining inhibitors of coagulation” (Siemens Healthcare Diagnostics Products GmbH, priority 2010, dated 2014).
Where two headings read alike, the source gives them in different places.

Molecular target: T1, factor Xa (Homo sapiens, UniProt P00742)
T1 construct: an F Xa reagent consisting of a lyophilized plasma fraction containing factor Xa; purchased Siemens Healthcare Diagnostics (Berichrom heparin assay, F Xa reagent); host or cells: plasma fraction
T1 sequence (P00742 235-488 limits assumed): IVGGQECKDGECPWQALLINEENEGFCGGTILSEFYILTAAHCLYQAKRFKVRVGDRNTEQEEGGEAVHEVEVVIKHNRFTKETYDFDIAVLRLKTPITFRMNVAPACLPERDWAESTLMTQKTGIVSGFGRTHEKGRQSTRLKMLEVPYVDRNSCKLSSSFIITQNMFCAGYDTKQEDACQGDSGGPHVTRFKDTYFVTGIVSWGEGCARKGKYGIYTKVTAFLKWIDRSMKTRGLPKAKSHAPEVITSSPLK
T1 sequence (P00742 41-179 partner limits assumed): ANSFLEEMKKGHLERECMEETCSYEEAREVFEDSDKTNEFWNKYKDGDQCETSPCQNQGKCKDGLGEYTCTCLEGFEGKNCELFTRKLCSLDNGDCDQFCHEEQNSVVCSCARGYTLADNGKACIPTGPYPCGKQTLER
Assay: Determination of the F Xa binding constant (Ki) of peptide aldehyde ligands, chromogenic assay with Berichrom heparin assay reagents, Dixon plot
Type: biochemical
Description: The kinetic data of the peptide aldehyde ligands were determined in chromogenic assay formats by measuring the rate of hydrolysis of chromogenic peptide substrates which compete with the peptide aldehyde ligands for binding to the active site of the particular enzyme, at various substrate concentrations and peptide aldehyde-ligand concentrations. The binding constant (Ki) was determined by a known method (Dixon, M., 1953, Biochem J, 55, 170-171).
The F Xa binding constant was determined using the reagents of the Berichrom® heparin assay from Siemens Healthcare Diagnostics. The Berichrom® heparin assay consists of: an F Xa reagent consisting of a lyophilized plasma fraction containing factor Xa, and additives such as Tris, NaCl, EDTA and preservatives, a chromogenic substrate reagent (Z-D-Leu-Gly-Arg-ANBA-methyl-amide), a dilution reagent for reconstitution, and a dextran sulfate reagent consisting of lyophilized dextran sulfate.
After reconstitution in 10 ml of dilution reagent, the dextran sulfate concentration is 0.02 g/l. The F Xa reagent is reconstituted with the reconstituted dextran sulfate reagent. The substrate reagent, after constitution with 2 ml of deionized water, contains 4 mmol/l Z-D-Leu-Gly-Arg-ANBA-methyl-amide. Dilutions of the substrate reagent were prepared with deionized water. The peptide aldehyde ligands prepared according to example 1 were dissolved in water and used as sample. The assays were carried out automatically in a BCS® XP coagulation analyzer (Siemens Healthcare Diagnostics, Marburg, Germany).
A reaction mix was mixed together as follows:
15 μl of sample (peptide aldehyde ligand B-r-G-R—H or B-f-P—R—H), […]
30 μl of substrate reagent (Z-D-Leu-Gly-Arg-ANBA-methyl-amide).
The reaction rate in mE/min was determined on the basis of the increase in optical density of the reaction mix at a wavelength of 405 nm. For this, the optical density of the reaction mixes was determined in a time interval from 10 to 70 seconds.

`N=C(N)NCCC[C@@H](C=O)NC(=O)[C@@H]1CCCN1C(=O)[C@@H](Cc1ccccc1)NC(=O)CCC(=O)NCCCOCCOCCOCCCNC(=O)CCCC[C@@H]1SC[C@@H]2NC(=O)N[C@@H]21` [B-f-P-R-H, biotinyl-Ttds-D-Phe-Pro-Arg-H] gave a 1/Reaction rate (CB-f-P-R-H 0.01019 μM, Csubstrate = 0.5 mM) of 5.617 min/E, a 1/Reaction rate (CB-f-P-R-H 0.01019 μM, Csubstrate = 2 mM) of 1.457 min/E and a 1/Reaction rate (CB-f-P-R-H 0.01019 μM, Csubstrate = 4 mM) of 0.8217 min/E. For the same compound, the 1/Reaction rate (CB-f-P-R-H 0.02038 μM, Csubstrate = 0.5 mM) was 5.565 min/E, the 1/Reaction rate (CB-f-P-R-H 0.02038 μM, Csubstrate = 2 mM) was 1.457 min/E and the 1/Reaction rate (CB-f-P-R-H 0.02038 μM, Csubstrate = 4 mM) was 0.8192 min/E. For the same compound, the 1/Reaction rate (CB-f-P-R-H 0.04076 μM, Csubstrate = 0.5 mM) was 5.569 min/E, the 1/Reaction rate (CB-f-P-R-H 0.04076 μM, Csubstrate = 2 mM) was 1.454 min/E and the 1/Reaction rate (CB-f-P-R-H 0.04076 μM, Csubstrate = 4 mM) was 0.8174 min/E. It also gave a 1/Reaction rate (CB-f-P-R-H 0.08152 μM, Csubstrate = 0.5 mM) of 5.572 min/E, a 1/Reaction rate (CB-f-P-R-H 0.08152 μM, Csubstrate = 2 mM) of 1.467 min/E and a 1/Reaction rate (CB-f-P-R-H 0.08152 μM, Csubstrate = 4 mM) of 0.8218 min/E. It also gave a 1/Reaction rate (CB-f-P-R-H 0.10190 μM, Csubstrate = 0.5 mM) of 5.619 min/E, a 1/Reaction rate (CB-f-P-R-H 0.10190 μM, Csubstrate = 2 mM) of 1.463 min/E and a 1/Reaction rate (CB-f-P-R-H 0.10190 μM, Csubstrate = 4 mM) of 0.8156 min/E. The 1/Reaction rate (CB-f-P-R-H 0.16304 μM, Csubstrate = 0.5 mM) was 5.675 min/E, the 1/Reaction rate (CB-f-P-R-H 0.16304 μM, Csubstrate = 2 mM) was 1.485 min/E and the 1/Reaction rate (CB-f-P-R-H 0.16304 μM, Csubstrate = 4 mM) was 0.8333 min/E. It also gave a 1/Reaction rate (CB-f-P-R-H 0.20380 μM, Csubstrate = 0.5 mM) of 5.619 min/E, a 1/Reaction rate (CB-f-P-R-H 0.20380 μM, Csubstrate = 2 mM) of 1.473 min/E and a 1/Reaction rate (CB-f-P-R-H 0.20380 μM, Csubstrate = 4 mM) of 0.8238 min/E. For the same compound, the 1/Reaction rate (CB-f-P-R-H 0.32609 μM, Csubstrate = 0.5 mM) was 5.69 min/E, the 1/Reaction rate (CB-f-P-R-H 0.32609 μM, Csubstrate = 2 mM) was 1.486 min/E and the 1/Reaction rate (CB-f-P-R-H 0.32609 μM, Csubstrate = 4 mM) was 0.832 min/E. The 1/Reaction rate (CB-f-P-R-H 0.40761 μM, Csubstrate = 0.5 mM) was 5.694 min/E, the 1/Reaction rate (CB-f-P-R-H 0.40761 μM, Csubstrate = 2 mM) was 1.489 min/E and the 1/Reaction rate (CB-f-P-R-H 0.40761 μM, Csubstrate = 4 mM) was 0.8338 min/E. It also gave a 1/Reaction rate (CB-f-P-R-H 0.65217 μM, Csubstrate = 0.5 mM) of 5.785 min/E, a 1/Reaction rate (CB-f-P-R-H 0.65217 μM, Csubstrate = 2 mM) of 1.51 min/E and a 1/Reaction rate (CB-f-P-R-H 0.65217 μM, Csubstrate = 4 mM) of 0.8514 min/E. It also gave a 1/Reaction rate (CB-f-P-R-H 0.81522 μM, Csubstrate = 0.5 mM) of 5.868 min/E, a 1/Reaction rate (CB-f-P-R-H 0.81522 μM, Csubstrate = 2 mM) of 1.521 min/E and a 1/Reaction rate (CB-f-P-R-H 0.81522 μM, Csubstrate = 4 mM) of 0.8494 min/E. For the same compound, the 1/Reaction rate (CB-f-P-R-H 1.30435 μM, Csubstrate = 0.5 mM) was 5.959 min/E, the 1/Reaction rate (CB-f-P-R-H 1.30435 μM, Csubstrate = 2 mM) was 1.562 min/E and the 1/Reaction rate (CB-f-P-R-H 1.30435 μM, Csubstrate = 4 mM) was 0.8735 min/E. The 1/Reaction rate (CB-f-P-R-H 1.63043 μM, Csubstrate = 0.5 mM) was 6.263 min/E, the 1/Reaction rate (CB-f-P-R-H 1.63043 μM, Csubstrate = 2 mM) was 1.591 min/E and the 1/Reaction rate (CB-f-P-R-H 1.63043 μM, Csubstrate = 4 mM) was 0.9021 min/E. The 1/Reaction rate (CB-f-P-R-H 2.60870 μM, Csubstrate = 0.5 mM) was 6.441 min/E, the 1/Reaction rate (CB-f-P-R-H 2.60870 μM, Csubstrate = 2 mM) was 1.672 min/E and the 1/Reaction rate (CB-f-P-R-H 2.60870 μM, Csubstrate = 4 mM) was 0.9317 min/E. For the same compound, the 1/Reaction rate (CB-f-P-R-H 3.26087 μM, Csubstrate = 0.5 mM) was 6.663 min/E, the 1/Reaction rate (CB-f-P-R-H 3.26087 μM, Csubstrate = 2 mM) was 1.715 min/E and the 1/Reaction rate (CB-f-P-R-H 3.26087 μM, Csubstrate = 4 mM) was 0.9448 min/E. It also gave a 1/Reaction rate (CB-f-P-R-H 4.89130 μM, Csubstrate = 0.5 mM) of 7.084 min/E, a 1/Reaction rate (CB-f-P-R-H 4.89130 μM, Csubstrate = 2 mM) of 1.84 min/E and a 1/Reaction rate (CB-f-P-R-H 4.89130 μM, Csubstrate = 4 mM) of 1.026 min/E. The 1/Reaction rate (CB-f-P-R-H 6.52174 μM, Csubstrate = 0.5 mM) was 7.613 min/E, the 1/Reaction rate (CB-f-P-R-H 6.52174 μM, Csubstrate = 2 mM) was 1.979 min/E and the 1/Reaction rate (CB-f-P-R-H 6.52174 μM, Csubstrate = 4 mM) was 1.106 min/E. The 1/Reaction rate (CB-f-P-R-H 8.15217 μM, Csubstrate = 0.5 mM) was 8.377 min/E, the 1/Reaction rate (CB-f-P-R-H 8.15217 μM, Csubstrate = 2 mM) was 2.149 min/E and the 1/Reaction rate (CB-f-P-R-H 8.15217 μM, Csubstrate = 4 mM) was 1.173 min/E. The 1/Reaction rate (CB-f-P-R-H 13.04348 μM, Csubstrate = 0.5 mM) was 9.739 min/E, the 1/Reaction rate (CB-f-P-R-H 13.04348 μM, Csubstrate = 2 mM) was 2.499 min/E and the 1/Reaction rate (CB-f-P-R-H 13.04348 μM, Csubstrate = 4 mM) was 1.359 min/E. For the same compound, the “Intersect of regression curve 1/reaction rate vs ligand concentration” value (from here on “Intersect … vs ligand concentration”) (Csubstrate 0.5 mM) was 5.5934 min/E, the “Slope of regression curve 1/reaction rate vs ligand concentration” value (“Slope … vs ligand concentration” below) (Csubstrate 0.5 mM) was 0.3216 min/E μM and the “Intersect … vs ligand concentration” value (Csubstrate 2 mM) was 1.4588 min/E. The “Slope … vs ligand concentration” value (Csubstrate 2 mM) was 0.0806 min/E μM, the “Intersect … vs ligand concentration” value (Csubstrate 4 mM) was 0.8202 min/E and the “Slope … vs ligand concentration” value (Csubstrate 4 mM) was 0.0421 min/E μM. The Ki (average of three Ki values, read-out: KiM average F Xa binding constant) was 16.9 µM, the Ki (intersection of regression curves Csubstrate 2 and 0.5 mM, read-out: Ki2&3 F Xa binding constant) was 17.2 µM and the Ki (intersection of regression curves Csubstrate 4 and 0.5 mM, read-out: Ki1&3 F Xa binding constant) was 17.1 µM. For the same compound, the Ki (intersection of regression curves Csubstrate 4 and 2 mM, read-out: Ki1&2 F Xa binding constant) was 16.6 µM and the “binding of the peptide aldehyde with F Xa (reversible or irreversible)” value (intersections of regression curves not on the x axis) was “reversible”.
